Measurements reported in BindingDB's records for doi:10.1080/14756360290019944 (University of Porto-Rua Anibal Cunha, 2002).

target: Xanthine dehydrogenase/oxidase (Homo sapiens, UniProt P47989); test: Inhibition Assay; details: pH 7.8; 25 °C
Procedure: The effect of 2-styrylchromone 1-3 on xanthine oxidase activity was evaluated by measuring the formation of uric acid from xanthine in a double beam spectrophotometer (Shimadzu 2600) at room temperature.

Sequence of Xanthine dehydrogenase/oxidase (P47989 whole entry): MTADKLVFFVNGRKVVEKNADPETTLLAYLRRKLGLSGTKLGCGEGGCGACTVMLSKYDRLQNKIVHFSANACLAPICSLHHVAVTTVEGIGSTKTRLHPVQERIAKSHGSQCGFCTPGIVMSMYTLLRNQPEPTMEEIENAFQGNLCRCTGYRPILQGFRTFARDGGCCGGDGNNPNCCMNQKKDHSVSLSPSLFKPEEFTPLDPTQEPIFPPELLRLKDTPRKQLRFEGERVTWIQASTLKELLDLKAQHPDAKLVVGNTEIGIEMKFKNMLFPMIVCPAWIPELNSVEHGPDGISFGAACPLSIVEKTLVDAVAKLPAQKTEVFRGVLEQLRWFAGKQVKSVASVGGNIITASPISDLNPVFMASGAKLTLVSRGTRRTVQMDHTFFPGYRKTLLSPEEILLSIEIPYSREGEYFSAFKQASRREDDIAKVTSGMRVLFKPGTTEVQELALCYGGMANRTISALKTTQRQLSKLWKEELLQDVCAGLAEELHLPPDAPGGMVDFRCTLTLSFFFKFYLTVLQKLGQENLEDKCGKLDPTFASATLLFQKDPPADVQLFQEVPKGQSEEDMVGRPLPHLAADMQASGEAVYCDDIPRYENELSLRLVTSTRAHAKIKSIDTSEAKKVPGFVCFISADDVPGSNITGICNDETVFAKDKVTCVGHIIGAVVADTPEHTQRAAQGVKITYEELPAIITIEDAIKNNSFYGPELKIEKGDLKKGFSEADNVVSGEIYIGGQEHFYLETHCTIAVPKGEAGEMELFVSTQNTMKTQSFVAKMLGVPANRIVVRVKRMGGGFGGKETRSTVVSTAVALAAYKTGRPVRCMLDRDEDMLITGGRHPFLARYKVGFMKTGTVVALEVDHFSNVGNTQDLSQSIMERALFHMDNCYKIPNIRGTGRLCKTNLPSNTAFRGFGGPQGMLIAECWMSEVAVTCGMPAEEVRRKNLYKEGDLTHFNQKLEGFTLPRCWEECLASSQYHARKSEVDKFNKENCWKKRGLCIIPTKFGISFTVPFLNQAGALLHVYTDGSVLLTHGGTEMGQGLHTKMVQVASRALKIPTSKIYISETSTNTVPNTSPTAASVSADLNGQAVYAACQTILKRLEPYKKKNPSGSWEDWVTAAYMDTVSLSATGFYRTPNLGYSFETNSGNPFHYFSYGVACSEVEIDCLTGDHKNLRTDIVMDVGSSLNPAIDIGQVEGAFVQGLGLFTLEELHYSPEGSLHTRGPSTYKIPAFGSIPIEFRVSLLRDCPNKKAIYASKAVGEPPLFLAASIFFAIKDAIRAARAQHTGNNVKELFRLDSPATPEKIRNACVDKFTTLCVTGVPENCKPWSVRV

**Q.** For `O=c1cc(/C=C/c2ccccc2)oc2ccccc12`, which IC50 is on record?
**A.** The IC50 was greater than 100 µM.

**Q.** How did the IC50 turn out when `O=c1cccc2oc(C=Cc3ccccc3)cc(O)c1-2` [2-Styrylchromone derivate, 1b] was run?
**A.** The IC50 was 52.1 µM.

**Q.** `O=c1cc(/C=C/c2ccccc2)oc2cc(O)ccc12` [2-Styrylchromone derivate, 1c] was tested. Which IC50 did it give?
**A.** Its IC50 is 17 µM.

**Q.** How did the IC50 turn out when `O=c1cc(C=Cc2ccccc2)oc2cc(O)cc(O)c12` [2-Styrylchromone derivate, 1d] was run?
**A.** The IC50 was 2.52 µM.

**Q.** With `O=c1cccc2oc(C=Cc3ccc(O)cc3)cc(O)c1-2` [2-Styrylchromone derivate, 2a] as the molecule, how does the IC50 read?
**A.** The IC50 was 77.4 µM.

**Q.** Which IC50 does the source give for `O=c1cc(/C=C/c2ccc(O)cc2)oc2cc(O)ccc12` [2-Styrylchromone derivate, 2b] here?
**A.** The IC50 was 19.6 µM.

**Q.** How did the IC50 turn out when `O=c1cc(C=Cc2ccc(O)cc2)oc2cc(O)cc(O)c12` [2-Styrylchromone derivate, 2c] was run?
**A.** The IC50 was 9.46 µM.

**Q.** How did the IC50 turn out when `O=c1cccc2oc(C=Cc3ccc(O)c(O)c3)cc(O)c1-2` [2-Styrylchromone derivate, 3a] was run?
**A.** Its IC50 is 4.36 µM.

**Q.** How did the IC50 turn out when `O=c1cc(/C=C/c2ccc(O)c(O)c2)oc2cc(O)ccc12` [2-Styrylchromone derivate, 3b] was run?
**A.** The IC50 was 2.03 µM.

**Q.** How did the IC50 turn out when `O=c1cc(O)cc2oc(C=Cc3ccc(O)c(O)c3)cc(O)c1-2` [2-Styrylchromone derivate, 3c] was run?
**A.** Its IC50 is 0.55 µM.
